This note sets out measurements from the Deep4Chem optical property database.

The nature of this data set: solvent given as SMILES.

`O=c1[nH]c(=O)c2nc3ccccc3nc2[nH]1` showed a fluorescence lifetime (in CC#N) of 0.35 ns.
`CCN(CC)c1ccc2cc(C#N)/c(=N\C(C)=O)oc2c1`: the fluorescence lifetime reads like this: (in CCO) 1.8 ns; (in ClCCl) 4 ns.
Take `CN(C)c1ccc2nc(-c3ccc(/C=N/c4ccccc4)cc3)sc2c1`: the fluorescence lifetime (in C1CCCCC1) was 2.2 ns.
In the case of `Cc1ccc(-c2ccc(-c3ccc(C)cc3)c(/C(=C(/c3ccccc3)c3cc(-c4ccc(C)cc4)ccc3-c3ccc(C)cc3)c3ccccc3)c2)cc1`, the fluorescence lifetime (in C1CCOC1) was found to be 8 ns.
In the case of `CCN(CC)c1ccc(-c2nc3cc(C(NC(=O)OC(C)(C)C)C(=O)OC)ccc3o2)c(O)c1` (stereo unspecified), the fluorescence lifetime was 0.22 ns (in CC1CCCCC1), 0.67 ns (in CC#N) and 0.25 ns (in CO).
`C(=C\c1ccc2ccccc2c1)/c1ccc(N(c2ccccc2)c2ccccc2)cc1` returned a fluorescence lifetime (in CC#N) of 1.09 ns and a fluorescence lifetime (in CCCCCC) of 0.4 ns.
The molecule `CC1=C(Br)C(C)=[N+]2C1=C(c1c(-c3ccccn3)nc3ccccn13)c1c(C)c(Br)c(C)n1[B-]2(F)F` returned a fluorescence lifetime (in ClCCl) of 0.9 ns.
With `O=C(O)CCCCCn1c2ccccc2c(=O)c2cc(Br)ccc21`, the fluorescence lifetime (in O) stood at 8.6 ns.
Turning to `CCCCCCCCCCCCN1C(=O)c2c(c3ccc4cc(-c5ccc(C#N)cc5)c(OC)cc4c3c3c2ccc2cc(-c4ccc(C#N)cc4)c(OC)cc23)C1=O`, the fluorescence lifetime (in ClCCl) was found to be 6.3 ns.
For the molecule `COc1ccc(C2=CC(c3cc(OC)cc(OC)c3)=[O+][B-](F)(F)O2)cc1`, the fluorescence lifetime (in ClCCl) is 7.4 ns.
`c1cc2c3c(c1)OCCCCCCOc1cccc(c1-c1c4ccccc4c-3c3ccccc13)OCCCCCCO2` returned a fluorescence lifetime (in C1CCCCC1) of 8.64 ns.
For `c1ccc(Nc2nc(Nc3ccccc3)nc(Nc3cc4ccc5cccc6ccc(c3)c4c56)n2)cc1`, the fluorescence lifetime (in CCCCCCC) turned out to be 102 ns.
In the case of `N#Cc1c(-n2c3ccccc3c3ccccc32)c(-n2c3ccccc3c3ccccc32)c(-n2c3ccccc3c3ccccc32)c(-n2c3ccc(-c4ccccc4)cc3c3cc(-c4ccccc4)ccc32)c1-n1c2ccccc2c2ccccc21`, the fluorescence lifetime (in Cc1ccccc1) turned out to be 7 ns.
In the case of `CN(C)c1ccc2nc(-c3ccccc3)sc2c1`, the fluorescence lifetime (in C1CCCCC1) was determined as 2.1 ns.
`CCCCCCCCCCOc1cc2cc(C#Cc3ccc(/C=C(\C#N)C(=O)O)cc3)c(=O)oc2cc1OCCCCCCCCCC` showed a fluorescence lifetime (in CC#N) of 1.1 ns.
With `CC(C)(C)c1ccc2c(c1)c1cc(C(C)(C)C)ccc1n2-c1ccc2c(c1)C(=O)c1ccc(-n3c4ccc(C(C)(C)C)cc4c4cc(C(C)(C)C)ccc43)cc1C2=O`, the fluorescence lifetime reads like this: (in Cc1ccccc1) 7.5 ns; (in c1ccc2c(c1)c1ccccc1n2-c1ccc(-c2ccc(-n3c4ccccc4c4ccccc43)cc2)cc1) 10.4 ns.
Consider `CCCCCCn1c2ccccc2c2cc3c4cc5c6ccccc6n(CCCCCC)c5cc4c4cc5c(C)cc(=O)oc5cc4c3cc21`, for which the fluorescence lifetime (in ClC(Cl)Cl) came out at 3.1 ns.
For the molecule `COc1cc2c(cc1/C=C/C1=CC(=C(C#N)C#N)CC(C)(C)C1)c1ccccc1n2C`, the fluorescence lifetime reads like this: (in C1CCOC1) 6.48 ns; (in CC#N) 10.4 ns; (in CCO) 7.78 ns; (in CCOC(C)=O) 6.38 ns; (in CN(C)C=O) 9.14 ns; (in CS(C)=O) 8.27 ns. The fluorescence lifetime amounted to 8.3 ns (in Cc1ccccc1), 9.43 ns (in ClC(Cl)Cl) and 6.7 ns (in ClCCl).
`Cc1ccc2c(nc3c(=O)n(C)c(=O)nc-3n2C)c1C` showed a fluorescence lifetime (in CC#N) of 3.9 ns.
With `COc1ccc2c3c(cccc13)C(=O)c1ccccc1-2`, the fluorescence lifetime was found to be 13.2 ns (in CC#N); 10.5 ns (in CC(C)=O); 12.7 ns (in CC(C)O); 0.6 ns (in CCCCOCCCC); 4.1 ns (in CCOC(C)=O); 0.9 ns (in CCOCC). Besides, the fluorescence lifetime by setting is: (in CO) 12.6 ns; (in Cc1ccccc1) 1.4 ns; (in Clc1ccccc1) 6 ns; (in N#Cc1ccccc1) 14.1 ns; (in O=C1CCCCC1) 7.8 ns.
On to `CN(C)c1ccc2cc3c(cc2c1)OCCN=C3`, for which the fluorescence lifetime (in CS(C)=O) stood at 4.4 ns.
`CC1(C)c2ccccc2N(c2ccc3c(c2)c2cc(N4c5ccccc5C(C)(C)c5ccccc54)ccc2c2nc(C#N)c(C#N)nc32)c2ccccc21` returned a fluorescence lifetime (in O=P(c1ccccc1)(c1ccccc1)c1cccc(-c2cc(-n3c4ccccc4c4ccccc43)cc(-n3c4ccccc4c4ccccc43)c2)n1) of 53.7 ns.
With `Cc1cccc2c1nc1c(=O)n(C)c(=O)nc-1n2C`, the fluorescence lifetime (in CC#N) is 1.8 ns.
For the setting “in O”, `C[NH+](C)c1c2ccccc2cc2ccccc12` gave a fluorescence lifetime of 17.3 ns.
Consider `COc1ccc(-c2cc3c(s2)c(-c2ccccc2)cc(=O)n3C)cc1`, for which the fluorescence lifetime (in ClCCl) was 4.69 ns.
On to `c1ccc(-c2nc(-c3ccccc3)nc(-c3ccc(-n4c5ccccc5c5cc6c(cc54)C(c4ccccc4)(c4ccccc4)c4ccccc4-6)cc3)n2)cc1`, for which the fluorescence lifetime (in O=P(c1ccccc1)(c1ccccc1)c1ccccc1Oc1ccccc1P(=O)(c1ccccc1)c1ccccc1) came out at 10.3 ns.
On to `COc1ccc(C#Cc2ccc(-c3nn[nH]n3)cc2)cc1OC`, for which the fluorescence lifetime came out at 0.94 ns (in C1CCOC1); 0.81 ns (in C1COCCO1); 0.46 ns (in CC#N); 0.86 ns (in CCOC(C)=O); 0.66 ns (in CS(C)=O); 0.73 ns (in Cc1ccccc1).
Consider `CC1=[N+]2C(=C(c3ccc(N(C)C)cc3)c3ccc(C)n3[B-]2(F)F)C=C1`, for which the fluorescence lifetime by setting is: (in C1CCCCC1) 2.72 ns; (in Cc1ccccc1) 3.24 ns.
In turn, `Cc1cc(-c2nnc(-c3ccccc3)o2)ccc1-n1c2ccccc2c2ccccc21` came in with a fluorescence lifetime (in CCO) of 1.82 ns.
Consider `Nc1cccc2c1C(=O)NC2=O`, for which the fluorescence lifetime by setting is: (in C1CCOC1) 15.2 ns; (in CCO) 16.3 ns; (in CN(C)C=O) 15.8 ns.
In turn, `Cc1ccc(/C2=c3\cc/c(o3)=C(\c3ccc(C)cc3)c3ccc([nH]3)-c3ccc4n3[P-](=O)(=O)[N+]3=C(C=CC3=C4c3cccs3)c3ccc2[nH]3)cc1` showed a fluorescence lifetime (in ClC(Cl)Cl) of 4.3 ns.
For the setting “in ClCCl”, `c1ccc(-p2c3ccccc3c3sc4ccccc4c32)cc1` (stereo unspecified) came in with a fluorescence lifetime of 3.57 ns.
For `CCC1(CC)c2cc(Br)ccc2-c2c1c1c(c3c2C(CC)(CC)c2cc(-c4cccs4)ccc2-3)C(CC)(CC)c2cc(Br)ccc2-1`, the fluorescence lifetime (in C1CCOC1) was 0.92 ns.
In turn, `COC(=O)/C(C#N)=c1/cc/c(=c2/cc/c(=C(\C#N)C(=O)OC)s2)s1` had a fluorescence lifetime (in Cc1ccccc1) of 0.016 ns.
For `O=C1NC(=O)c2ccc3c4ccc5c6c(ccc(c7ccc1c2c73)c64)C(=O)N(c1ccc(Cl)cc1)C5=O`, where the note is “in CN(C)C=O”, the fluorescence lifetime came out at 3.1 ns.
Under “in Cc1ccccc1”, `COc1ccc(C2=C(c3ccccc3)C(c3ccccc3)=[N+]3C2=Nc2c(-c4ccc(OC)cc4)c(-c4ccccc4)c(-c4ccccc4)n2[B-]3(F)F)cc1` displayed a fluorescence lifetime of 0.26 ns.
On to `Cc1nc(-c2ccc(N3c4ccccc4C(c4ccccc4)(c4ccccc4)c4ccccc43)cc2)cc(-c2ccc(N3c4ccccc4C(c4ccccc4)(c4ccccc4)c4ccccc43)cc2)n1`, for which, under “in O=P(c1ccccc1)(c1ccccc1)c1ccc2oc3ccc(P(=O)(c4ccccc4)c4ccccc4)cc3c2c1”, the fluorescence lifetime came to 11 ns.
Take `CCCCCCCCOC(=O)c1ccc(-c2cc3ccc4cc(-c5ccc(C(=O)OCCCCCCCC)cc5)cc5ccc(c2)c3c45)cc1`: under “in Cc1ccccc1”, the fluorescence lifetime was found to be 49 ns.
Take `CN(c1ccccc1)c1ccc(/C=C/c2ccccc2)cc1`: the fluorescence lifetime reads like this: (in CC#N) 1.86 ns; (in CCCCCC) 0.62 ns.
Under “in CCO”, `CCCCCCCCCCCCN1C(=O)c2cccc3c(N(Cc4ccccn4)Cc4ccccn4)c4ccccc4c(c23)C1=O` registered a fluorescence lifetime of 5.52 ns.
On to `N#Cc1c(-n2c3ccccc3c3ccccc32)c(-n2c3ccccc3c3ccccc32)c(-n2c3ccccc3c3ccccc32)c(-n2c3ccccc3c3ccccc32)c1-n1c2ccccc2c2ccccc21`, for which the fluorescence lifetime (in Cc1ccccc1) worked out at 3.8 ns and the fluorescence lifetime (in c1cc(-c2cccc(-n3c4ccccc4c4ccccc43)c2)cc(-n2c3ccccc3c3ccccc32)c1) was 3.2 ns.
In the case of `Cc1cc(N(C)C)cc(C)c1/C=C/C=C/c1ccc(C#N)cc1`, the fluorescence lifetime reads like this: (in C1CCOC1) 0.51 ns; (in CC#N) 0.61 ns; (in CCCCCC) 0.29 ns; (in CCCCOCCCC) 0.38 ns; (in CCO) 0.58 ns; (in CCOCC) 0.49 ns.
`CCC12C(=C3C(=C4c5ccc(-c6ccc(C(C)=O)cc6)cc5S(=O)(=O)C41CC)C(F)(F)C(F)(F)C3(F)F)c1ccc(-c3ccc(C(C)=O)cc3)cc1S2(=O)=O` (stereo unspecified) showed a fluorescence lifetime (in C1COCCO1) of 2.8 ns.
For the molecule `CC(=O)c1ccc2ccc3cccc4ccc1c2c34`, the fluorescence lifetime (in C1CCOC1) came to 13.4 ns; the fluorescence lifetime (in CC#N) was found to be 9.47 ns; the fluorescence lifetime (in CCCCCC) was determined as 6.56 ns; the fluorescence lifetime (in CCO) turned out to be 0.784 ns; the fluorescence lifetime (in CN(C)C=O) came to 5.34 ns; the fluorescence lifetime (in CO) amounted to 0.538 ns. The fluorescence lifetime worked out at 2.8 ns (in Cc1ccccc1) and 4.8 ns (in ClCCl).
Molecule `O=C1c2ccccc2C2=C(c3ccccn3)NN=C(c3ccccn3)C2c2ccccc21` (stereo unspecified) showed a fluorescence lifetime (in CC#N) of 12.8 ns.
Where the note is “in CC#N”, `COC(=O)C12N=N[C@](C(=O)OC)(C3C4CCC(C4)C31)[C@@]1(C)C[C@@H]21` (stereo partly specified) returned a fluorescence lifetime of 116 ns.
`CC1=CC(c2ccc3cc(N(C)C)ccc3c2)=[O+][B-](F)(F)O1`: the fluorescence lifetime worked out at 3.56 ns (in C1CCOC1); 1.02 ns (in CC#N); 2.72 ns (in CC(C)=O); 1.47 ns (in CS(C)=O); 4.08 ns (in Cc1ccccc1); 3.46 ns (in ClC(Cl)Cl). Also, where the note is “in ClCCl”, the fluorescence lifetime was found to be 3.69 ns.
Consider `COC(=O)c1cc(=O)n(C)c2cc(-c3ccc(N4CCN(C)CC4)cc3)sc12`, for which, under “in ClCCl”, the fluorescence lifetime is 1.5 ns.
The same measure, in the same setting: for `CCCCNc1nc(/C=C/c2ccccc2)[n+]([O-])c2c1CCCC2` the value was 8.9 ns.
For `CC(C)(C)c1ccc(C2=C(c3ccc(C(C)(C)C)cc3)[Si](c3ccccc3)(c3ccccc3)c3ccccc32)cc1`, for the setting “in C1CCOC1”, the fluorescence lifetime turned out to be 1.62 ns.
